{"source": "patent US12105070B2", "about": "“LC-MS/MS method for measurement of Aloesin in rat plasma” (HAINAN MEDICAL UNIVERSITY, priority 2020, dated 2024)", "key": {"[1]": {"assay": "Stability of aloesin in plasma samples (LC-MS/MS quality control samples)", "format": "in vitro ADME, rat", "method": "Prepare 3 concentrations of aloesin quality control samples (500 ng·mL^−1, 50 ng·mL^−1, 3 ng·mL^−1) with blank plasma, and examine the stability under the following conditions.\n(1) After the sample is processed, it is placed in the autosampler for 8 hours, and then the sample is injected for analysis;\n(2) The sample is processed after 3 freeze-thaw cycles, and the sample is injected for analysis;\n(3) The sample is placed at room temperature for 4 hours and then comes out, and the sample is injected for analysis;\n(4) The sample is processed after the sample is stored at −20° C. for 15 days, and then the sample is injected for analysis.\nThe stability inspection is qualified."}, "[2]": {"conditions": "toxicological studies, no details given; cited from earlier work"}}}
{"compound": "CC(=O)Cc1cc(=O)c2c(C)cc(O)c([C@@H]3O[C@H](CO)[C@@H](O)[C@H](O)[C@H]3O)c2o1", "note": "[aloesin]", "values": [{"measurement": "Accuracy", "setting": "[1]; 3 ng·ml^-1 in plasma, 3 freeze-thaw cycles", "value": 109.60, "unit": "%"}, {"measurement": "Accuracy", "setting": "[1]; 3 ng·ml^-1 in plasma, processed sample in autosampler 8 h", "value": 109.20, "unit": "%"}, {"measurement": "Accuracy", "setting": "[1]; 3 ng·ml^-1 in plasma, room temperature for 4 hours", "value": 106.18, "unit": "%"}, {"measurement": "Accuracy", "setting": "[1]; 3 ng·ml^-1 in plasma, stored at -20° C. for 15 days", "value": 108.00, "unit": "%"}, {"measurement": "Accuracy", "setting": "[1]; 50 ng·ml^-1 in plasma, 3 freeze-thaw cycles", "value": 109.40, "unit": "%"}, {"measurement": "Accuracy", "setting": "[1]; 50 ng·ml^-1 in plasma, processed sample in autosampler 8 h", "value": 108.20, "unit": "%"}, {"measurement": "Accuracy", "setting": "[1]; 50 ng·ml^-1 in plasma, room temperature for 4 hours", "value": 105.20, "unit": "%"}, {"measurement": "Accuracy", "setting": "[1]; 50 ng·ml^-1 in plasma, stored at -20° C. for 15 days", "value": 100.14, "unit": "%"}, {"measurement": "Accuracy", "setting": "[1]; 500 ng·ml^-1 in plasma, 3 freeze-thaw cycles", "value": 105.20, "unit": "%"}, {"measurement": "Accuracy", "setting": "[1]; 500 ng·ml^-1 in plasma, processed sample in autosampler 8 h", "value": 102.60, "unit": "%"}, {"measurement": "Accuracy", "setting": "[1]; 500 ng·ml^-1 in plasma, room temperature for 4 hours", "value": 101.80, "unit": "%"}, {"measurement": "Accuracy", "setting": "[1]; 500 ng·ml^-1 in plasma, stored at -20° C. for 15 days", "value": 94.66, "unit": "%"}, {"measurement": "toxic side effects", "setting": "[2]", "value": "basically no toxic side effects"}]}
